According to patent US20160089373A1, “CARDIO- AND RENOPROTECTIVE ANTIDIABETIC THERAPY” (Boehringer Ingelheim International GmbH, priority 2013, published 2016):
Like-named read-outs stand apart in the source and are kept apart here.

Columns and labels:
[1] = system: male diabetic db/db mice; test: Diabetic nephropathy study in db/db mice (serum/urine parameters, renal histology); type: in vivo; settings: for glomerular mesangial matrix expansion (histology) / tubulointerstitial fibrosis (histology): compared with diabetic vehicle; for effects on fasted or post-prandial glucose levels: db/db mice, 12 weeks treatment, linagliptin 3 mg/kg/day, enalapril 20 mg/kg/day
Procedure: (§1) Diabetic nephropathy is the main cause of end-stage renal disease. […] Heterozygous db/+ mice treated with vehicle were used as controls (n=8). Levels of glucose, triglycerides, insulin, cystatin C and creatinine were analysed in serum and urine samples at baseline and monthly thereafter. Body weight, urinary albumin excretion and OGTT were monitored periodically.
(§2) Renal histology (glomerulosclerosis, tubulointerstitial fibrosis) and expression of the sialoglycoprotein podocalyxin (a marker of podocyte integrity in the glomeruli, marker for glomerular damage), glucagon-like peptide 1 receptor (GLP-1R), alpha-smooth muscle actin and type I collagen were evaluated at the end of the study.

[2] = system: podocalyxin; test: Podocalyxin immunohistochemistry of kidney sections (podocyte integrity) in db/db mice; type: in vivo; settings: 12 weeks, semi-quantitative score 0-3, p<0.05 vs diabetic mice
Procedure: The expression of podocalyxin is analysed by immunohistochemistry using a podocalyxin specific antibody. Kidney sections from male diabetic db/db mice (10 weeks old at start and treated for 3 months) in the following groups are analysed:
All of the evaluations of the glomerular staining intensities are done semi-quantitatively by two different experts of kidney pathology blinded for the slides.
The predefined scoring gradient is 0, 1, 2, and 3.0 means no expression, whereas 3 is given when expression is highest. Group means are compared with a non-parametric test. P values less than 0.05 are considered significant.
as §1, §2

[3] = Pooled analysis of seven placebo-controlled trials: albuminuria in elderly T2D patients with diabetic nephropathy (set 2); type: in vivo, human; settings: 5 mg q.d., 24 weeks, set 2, aged ≧65 years
Description: (§3) The endpoint in both sets was the percentage change in geometric mean UACR after 24 weeks.

[4] = Pooled analysis of four 24-week placebo-controlled trials: albuminuria in T2D patients with early diabetic nephropathy on stable ACE/ARB (set 1); type: in vivo, human; settings: 5 mg qd, 24 weeks
Description: Despite optimal therapy, people with type 2 diabetes (T2D) remain at high risk for kidney damage, manifest as abuminuria, and many develop progressive renal failure. Further, despite optimal therapy with inhibitors of the renin-angiotensin-aldosterone system (RAAS), patients with type 2 diabetes mellitus (T2DM) remain at an increased risk of progressive renal failure and cardiovascular disease, for which abuminuria has emerged as a predictive biomarker. […] Participants were included in this analysis if they had: i) 30≦UACR≦3000 mg/g creatinine; ii) stable treatment with ACE/ARBs ≧4 weeks prior and during the trial; and iii) eGFR >30 ml/min/1.73 m^2. The endpoint was the percentage change in geometric mean UACR. […] After 24 weeks, placebo-corrected changes in A1C and FPG were −0.71% and −26 mg/dl, respectively (both p<0.0001). […] This protective effect may be independent of race.
as §3

[5] = system: glucagon-like peptide 1 receptor (GLP-1R); test: GLP-1R immunohistochemical staining of kidney sections in db/db mice; type: in vivo; settings: P<0.05 vs vehicle-treated db/db mice
Procedure: as §1, §2

[6] = for feτ, s: steady state (Day 12), gMean
[7] = Meta-analysis of renal safety/outcomes in 13 phase 3 placebo-controlled trials, 5466 T2D patients
Description: The aim of this study was to evaluate renal safety/outcomes with linagliptin in phase 3, randomized, double-blind, placebo-controlled trials (≧12 wks).

[8] = linagliptin compared with enalapril, p<0.05

CCOC(=O)[C@H](CCc1ccccc1)N[C@@H](C)C(=O)N1CCC[C@H]1C(=O)O [enalapril, reference compound]
glomerular mesangial matrix expansion (histology) ([1]; p<0.05): reduced almost to control levels
tubulointerstitial fibrosis (histology) ([1]; p<0.05): reduced almost to control levels
effects on fasted or post-prandial glucose levels [1]: limited effects
podocalyxin expression (glomerular staining score) [2]: 2.4±0.2

CC#CCn1c(N2CCC[C@@H](N)C2)nc2c1c(=O)n(Cc1nc(C)c3ccccc3n1)c(=O)n2C [linagliptin]
UACR reduction versus placebo (trend) [3]: −25%
UACR between group difference vs placebo ([4]; set 1): −29%
lowering of adjusted UACR (percentage change in geometric mean) ([4]; set 1, on stable ACE/ARB): 33%
expression of GLP-1R in the glomeruli [5]: 1.90±0.04
feτ, s ([6]; 1 mg once daily oral): 3.34%
feτ, s ([6]; 2.5 mg once daily oral): 3.06%
feτ, s ([6]; 5 mg once daily oral): 6.27%
feτ, s ([6]; 10 mg once daily oral): 3.22%
route of excretion ([6]; human, in vivo): primarily excreted unchanged via the bile
excreted via the kidney ([6]; therapeutic oral dose levels, of the administered oral dose): < 7%
glomerular mesangial matrix expansion (histology) ([1]; p<0.05): reduced almost to control levels
tubulointerstitial fibrosis (histology) ([1]; p<0.05): reduced almost to control levels
effects on fasted or post-prandial glucose levels [1]: limited effects
tubulointerstitial fibrosis [1, 8]: significantly decreased
urinary albumin excretion rates [1, 8]: significantly decreased
patients with composite renal endpoint events ([7]; linagliptin 5 mg qd, n=3505): 12.8%
patients with composite renal endpoint events (number) ([7]; linagliptin 5 mg qd, n=3505): 448
HR for the composite endpoint vs placebo ([7]; patients <65 yrs): 0.77
HR for the composite endpoint vs placebo ([7]; patients >65 yrs): 1.04
podocalyxin expression (glomerular staining score) [2]: 2.3±0.2
